Assay results published in patent publication US20180194805A1, “USE OF PENTAPEPTIDE-3 KTTKS OR HEXAPEPTIDE-3 KTTKSF FOR TREATING DEGENERATIVE JOINT DISEASE” (Advanced Healthtech Biopeptide Laboratories Co., LTD., priority 2017, published 2018).
“Also recorded” adds a separate entry of the source.

Tests used:
[1] = test system: arthrodial cartilage of the knee joint; experiment: Rabbit knee cartilage injury model: observation by bare eyes and histomorphometry; assay type: in vivo, New Zealand white rabbits; settings: intra-articular 250 ppm/kg once every 7 days
Protocol: (§1) Fifteen (15) healthy adult New Zealand white rabbits were randomly divided into three (3) groups: a normal control group (Group A), a model control group (Group B) and a test group subject to intra-articular injection of a test peptide (Group C), with five (5) rabbits included in each of the groups. Fasting was conducted within four hours before surgical operations. Ketamine (10 mg/kg) and atropine (0.2 mg/kg) were injected in the muscle of each rabbit. After anesthesia took effect, each rabbit was confined to an operating table. An 8 cm-long longitudinal scission was made in the back of each knee before the skin was lifted. From the back of the knee, the articular capsule and synovial were opened. Then, the knee was bent for 90° to expose the cartilage at a lower end of the femur. Two cylindrical cutouts of 3 mm in diameter and 3 mm in depth were made. Coagulation was removed from each of the cutouts. The joint cavity was washed with a sterile saline solution. Stitches were made for each section. After the surgical operation, injection of penicillin was conducted against infection for a week. After five (5) days, each rabbit was able to eat and stand normally.
(§2) Two (2) weeks after the surgical operation, the rabbits of Group A and Group B were not treated, whereas the rabbits of Group C were subject to intra-articular injection of 250 ppm/kg of pentapeptide-3 KTTKS once for every seven (7) days, and the injection lasted for twelve (12) weeks. Articular injection of 0.5 ml of saline was executed, and then 0.2 ml of synovial liquid was collected. The articular capsule was cut and opened, synovial was removed, and an entire tibial joint was taken. Arthropathy in arthrodial cartilage was observed by bare eyes and also via surgical lens. Slices were taken, dyed by hematoxylin and eosin stain (HE Stain) and toluidine blue, and then observed in an optical microscope.

[2] = test system: NO, SOD and MDA in synovial liquid; experiment: Biochemical indicators (NO, SOD, MDA) in synovial liquid of the rabbit model; assay type: in vivo, New Zealand white rabbits
Source text: As used in the present invention, all of the methods for measuring SOD, NO and MDA in synovial liquid and collagen and proteoglycan in extracellular matrix of cartilage have been known and conventionally used in the art.
as §1, §2

[3] = test system: cartilage cells of the growth plate; experiment: Cultivated cartilage cells: DNA content, collagen and proteoglycan production; assay type: cell-based, rabbits; settings: 250 ppm; samples after 3, 7 and 14 days
Protocol: Firstly, cartilage cells of the growth plate of the same rabbits were taken and continuously cultivated. The cultivated cells were divided into three groups. In Group I, only 250 ppm of pentapeptide-3 KTTKS was added. In Group II, only 100 ng/ml of collagen was added. In Group III, 250 ppm of pentapeptide-3 KTTKS and 100 ng/ml of collagen were added. A negative control group was also used. After new tissues of cartilage grew at a lower portion of a centrifuge tube, the new tissues were transferred to a 24-well platefor continuing cultivation, wherein the culture medium was replaced for every 2 days. During the cultivation, samples were collected after three (3), seven (7) and fourteen (14) days, and then were analyzed.
For the histological and histochemical measurements, samples were collected, and HE dying and immunochemical measurement (S-P method) were executed.
The content of DNA in the cells of cartilage was determined by the method of Hoechst 33258.
Extracellular matrix of cartilage primarily comprises collagen and proteoglycan composed of glycosaminoglycan and core protein, in addition to water. The content of the matrix and its status of the metabolism were quantitatively analyzed by determining a level of the collagen and proteoglycan in the new tissues of cartilage.
The synthesis of the collagen of the cartilage is measured by the hydroxyproline method. Because the content of hydroxyproline in the collagen was substantially constant (about 10% by weight), an amount of hydroxyproline could be used to analyze the amount of the collagen of the cartilage by using a commercial kit including the hydroxyproline reagent. The content of the collagen in the samples was calculated.

[4] = Group C: intra-articular injection of 250 ppm/kg once every 7 days for 12 weeks
[5] = intra-articular 250 ppm/kg once every 7 days, 12 weeks

pentapeptide-3 KTTKS (printed: Lys-Thr-Thr-Lys-Ser) [pentapeptide Lys-Thr-Thr-Lys-Ser; test peptide injected intra-articularly in Group C]
Histomorphometric observation of repaired tissues (HE stain, toluidine blue) ([1]; after 12 weeks): the repaired tissues were not substantially different from the normal tissues of the knee joint; also recorded: considerably repaired the damaged tissues of cartilage
Repair of knee joint injuries observed by bare eyes ([1]; after 12 weeks): the injuries were completely repaired
Morphosis of the arthrodial cartilage compared with model control Group B ([1]; 12 weeks): significant improvement
MDA level in synovial liquid [2, 4]: 15.23 ± 5.62 c/mol · L^−1
NO level in synovial liquid [2, 4]: 25.11 ± 3.65 c/mol · L^−1
SOD level in synovial liquid [2, 4]: 6.18 ± 2.17 c/mol · L^−1
Change of MDA level in synovial liquid compared with model control Group B [2, 5]: considerably reduced
Change of SOD level in synovial liquid compared with model control Group B [2, 5]: considerably increased
Content of DNA of the cells of the cartilage versus control group (Hoechst 33258, FIG. 1) [3]: statistically different from that of the control group
Hyperosteogeny of the cells of the cartilage [3]: considerable hyperosteogeny
Production of collagen in cartilage tissue (hydroxyproline method, FIG. 2) [3]: considerably increased
Production of proteoglycan of cartilage tissue (FIG. 3) [3]: considerably increased
